Test results published in US20100022596A1, “EPOTHILONE ANALOGUES” (priority 2006, published 2010).
“And” between values parts separate entries of the source, which are not always exact repeats. Equal values may be shown once.

What was measured:
[1] = system: human epidermoid carcinoma cell line KB-8511; test: Growth inhibition of KB-8511 cells (P-gp170-overexpressing multidrug-resistant subline), 72 h, methylene blue staining; type: cell-based
[2] = system: human epidermoid carcinoma cell line KB-31; test: Growth inhibition of KB-31 cells, 72 h, methylene blue staining; type: cell-based; conditions: KB-31, 72 h exposure
Procedure: Determination of IC50 Values Against Human Epidermoid Carcinoma Cell Lines KB-31
Cells are exposed to compounds for 72 h. Cell numbers are estimated by quantification of protein content of fixed cells by methylene blue staining.

[3] = KB-8511 (P-gp170-overexpressing), 72 h exposure
[4] = KB-8511, 72 h exposure, class symbols

SMILES	IC50 ([1]; Homo sapiens, KB-8511, 72 h exposure, class symbols) [nM]	IC50 ([2]; Homo sapiens, KB 3-1, 72 h, class symbols) [nM]	IC50 [1, 3]	IC50 [1, 4] [nM]	IC50 [2]	IC50 ([2]; class symbols) [nM]	IC50 ([1]; Homo sapiens, KB-8511 (P-gp170-overexpressing), 72 h exposure) [nM]	IC50 ([2]; Homo sapiens, KB 3-1, 72 h) [nM]	IC50 ([1]; KB-8511, 72 h exposure, class symbols, listed as drawing 62) [nM]
C/C(=C\c1csc(C)n1)[C@@H]1C[C@@H]2OC(=O)NC2CCCC(C)[C@H](O)C(C)C(=O)C(C)(C)C(O)CC(=O)O1 (stereo partly shown) [Compound 1]	> 1000	500 to 750	–	–	–	–	–	–	–
CC(=Cc1csc(C)n1)C1CC2OC(C)=NC2CCCC(C)C(O)C(C)C(=O)C(C)(C)C(O)CC(=O)O1 (stereo not shown) [Compound 4a]	–	–	> 1000 nM	> 1000	> 1000 nM	> 1000	–	–	–
CCC1=NC2CCCC(C)C(O)C(C)C(=O)C(C)(C)C(O)CC(=O)OC(C(C)=Cc3csc(C)n3)CC2O1 (stereo not shown) [Compound 4b]	–	–	5540 nM	> 1000	1860 nM	> 1000	–	–	–
CCCCC1=NC2CCCC(C)C(O)C(C)C(=O)C(C)(C)C(O)CC(=O)OC(C(C)=Cc3csc(C)n3)CC2O1 (stereo not shown) [Compound 4c]	–	–	923 nM and 998 nM	750 to 1000	344 nM and 386 nM	250 to 500	–	–	–
CC(=Cc1csc(C)n1)C1CC2OC(C(C)(C)C)=NC2CCCC(C)C(O)C(C)C(=O)C(C)(C)C(O)CC(=O)O1 (stereo not shown) [Compound 4d]	–	–	55 nM	100 to 250	12 nM	100 to 250	–	–	–
COC1=NC2CCCC(C)C(O)C(C)C(=O)C(C)(C)C(O)CC(=O)OC(C(C)=Cc3csc(C)n3)CC2O1 (stereo not shown) [Compound 4e]	–	–	5520 nM	> 1000	1270 nM	> 1000	–	–	–
C/C(=C\c1csc(C)n1)[C@@H]1C[C@@H]2OC(=O)NC2CCCC(C)[C@H](O)C(C)C(=O)C(C)(C)C(O)CC(=O)O1 (stereo partly shown) [Compound 4h]	–	–	–	–	640 nM	–	> 10000	615	–
CC(=Cc1csc(C)n1)C1CC2OC(c3ccsc3)=NC2CCCC(C)C(O)C(C)C(=O)C(C)(C)C(O)CC(=O)O1 (stereo not shown) [Compound 5l]	–	–	146 nM	–	42 nM	–	–	–	< 100
CC(=Cc1csc(C)n1)C1CC2OC(c3ccncc3)=NC2CCCC(C)C(O)C(C)C(=O)C(C)(C)C(O)CC(=O)O1 (stereo not shown) [Compound 6a]	–	–	83 nM	< 100	30 nM	< 100	–	–	–
CC(=Cc1csc(C)n1)C1CC2OC(c3ccsc3)=NC2CCCC(C)C(O)C(C)C(=O)C(C)(C)C(O)CC(=O)O1 (stereo not shown) [drawing 72]	–	–	–	100 to 250	–	< 100	–	–	–
